Patent US20250064758A1 (priority 2023, published 2025)

Columns and labels:
Format in all cases: cell-based
[1] = tested on: SARS-COV-2 Omicron variant BA.5
[2] = tested on: SARS-COV-2 Delta variant B.1.617.2
[3] = tested on: SARS-COV-2 Omicron variant BA.4

In the case of `CC(C)(C)NCC(O)COc1cccc2c1CC(O)C(O)C2` (stereo not drawn) [Nadolol], the “SARS-CoV-2 replication fitness (viral gene copies in cell supernatant)” value (shortened to “SARS-CoV-2 replication fitness”) [1] is reported as “didn't affect”.

In the case of `CC(C)NCC(O)COc1cccc2ccccc12` (stereo not drawn) [Propranolol, 1-(isopropylamino)-3-(1-naphthyloxy)-2-propanol], the “reduction in viral load” value [2] is reported as 2-3 log10, the “reduction in viral load” value [3] is reported as 2-3 log10 and the “reduction in viral load” value [1] is reported as 2-3 log10.

In the case of `CC(C)NCC(O)COc1ccc(CC(N)=O)cc1` (stereo not drawn) [atenolol], the “SARS-CoV-2 replication fitness” value [1] is reported as “didn't affect”.

With `CC(C)NCC(O)c1ccc(O)c(O)c1` (stereo not drawn) [isoproterenol] the “SARS-CoV-2 replication fitness” value [1] was “didn't affect”.
